Measured values published in US20140135396A1, “Treatment of Acetaminophen-Induced Liver Damage by the Administration of Modulators of Nitric Oxide” (BETH ISRAEL DEACONESS MEDICAL CENTER, INC., priority 2011, published 2014).
Entries after “also recorded” stand apart in the source; their conditions may differ.

Tests used:
[1] = system: zebrafish embryos; assay: Liver size in zebrafish embryos (lfabp in situ hybridization, lfabp:GFP); assay type: in vivo; settings: for liver size (in situ hybridization for lfabp and transferrin): 10 μM, exposure 24-72 hpf; for liver size: other NO donors at optimal doses, alternative NOS inhibitor, inactive enantiomer, dose series
Description: In order to identify regulators of liver formation a chemical genetic screen was conducted. Several of the chemicals identified by the screen were known to impact on NO signaling. Based on these initial observations, well-established modulators of NO signaling were secondarily screened for effects on liver formation. […] The contrasting effects of L-Arg and L-NAME on liver formation were confirmed by in vivo fluorescent microscopy of lfabp:GFP transgenic zebrafish. To quantify the phenotypic changes caused by NO signaling, the liver size (region of lfabp expression) of treated embryos were scored as large, medium or small. […]
To further characterize the role of NO signaling on liver formation, we studied the temporal requirements for NO signaling. Embryos were exposed to Deta (10 μM), L-Arg (10 μM) or L-NAME (10 μM) from 24-48 or 48-72 hpf at which point liver size was assessed. […] Exposure of embryos to L-Arg (10 μM) caused a subtle yet significant increase in the hepatic bud size at 36 hpf (region of hhex expression) in 26% of embryos, whereas L-NAME diminished hepatic bud size in 33% of embryos. […]

[2] = system: zebrafish embryos; assay: Survival of zebrafish embryos exposed to a lethal dose of APAP; assay type: in vivo; settings: for survival compared to APAP alone: co-exposure 5 μM; for survival: GSNORi 1 μM, NAC 10 μM
Description: Having found a hepatoprotective effect of GSNORi in embryos exposed to a sublethal dose of APAP, we next examined whether GSNORi was able to enhance survival in embryos exposed to a lethal dose of APAP (10 mM).

[3] = system: cloche embryos; assay: Liver size in cloche mutant embryos lacking vasculature; assay type: in vivo, zebrafish; settings: for liver size in cloche embryos: summary statement
Description: NO signaling can occur via 2 distinct mechanisms namely, cGMP-dependent vasodilation and S-nitrosylation pathways. In order to clarify the importance of the well-known vascular effects of NO, we examined the effect of chemical modulators of NO signaling in cloche mutants that have no endothelial cells and therefore lack any vasculature.

[4] = system: adult zebrafish; assay: APAP-induced liver injury in adult zebrafish; assay type: in vivo; settings: for overall survival compared to APAP alone: adults, Deta 5 μM, GSNO 5 μM; for overall survival compared to APAP alone / hepatic glutathione (GSH) / liver histology: APAP 10 mM; for hepatic glutathione (GSH) / liver histology: GSNORi 1 μM and/or NAC 10 μM
Description: Having shown that GSNORi was hepatoprotective in APAP exposed larvae, we wanted to examine whether GSNORi remained effective in adult zebrafish. To visualise the hepatoprotective properties of GSNORi in vivo, adult casper lfabp:GFP transgenic fish were exposed to APAP (10 mM) in the presence or absence of GSNORi (1 μM) for 24 hr and examined 72 hpe by fluorescence microscopy. […] To gain a greater understanding of the hepatoprotective potential of GSNORi, survival studies were conducted in which adults were exposed to APAP (10 mM) in the presence or absence of GSNORi (1 μM) for 24 hr, followed by a 2-day recovery period in fresh water. […] The differences in survival were reflected in circulating ALT levels, which are used clinically to assess liver toxicity; peaking at 24 hpe with 196 U/L in APAP (10 mM) exposed fish and 55 U/L for fish exposed to APAP with GSNORi (1 μM).
Given that treatments for APAP-induced liver injury are provided after a considerable delay in the clinical setting, we wanted to determine whether GSNORi would remain hepatoprotective when treatment was delayed. In addition, we wanted to ascertain whether GSNORi could synergize with the clinical antidote NAC and extend the therapeutic window.

[5] = system: zebrafish embryos; assay: Chemical genetic screen for effects on liver development in zebrafish embryos; assay type: in vivo; settings: lfabp:GFP fluorescence and lfabp in situ hybridization at 72 hpf
Description: The liver arises from anterior endodermal progenitor cells. Liver development can be divided into three stages, specification (18-24 hours post fertilization, hpf), budding/differentiation (24-72 hpf), and hepatic outgrowth (72-96 hpf). The various stages of liver development can be observed in the embryo by in situ hybridization for hhex (endodermal progenitors), foxA3 (differentiated endoderm) and liver fatty acid binding protein (lfabp, marker of hepatocytes).
In an effort to identify novel regulators of liver formation and homeostasis, a library of 2880 biologically active compounds (obtained from the ICCB at Harvard Medical School) was previously screened for global effects on liver development in zebrafish. Hepatogenesis was assessed in vivo using fluorescent reporter fish where the hepatocyte-specific lfabp promoter drives GFP expression. All embryos were imaged with fluorescence microscopy at 72 hpf, then fixed and subjected to in situ hybridization for lfabp to confirm the in vivo findings. Of the chemical treatments, 191 compounds (6.6%) increased, and 344 (11%) decreased liver formation.

[6] = system: lfabp:GFP embryos; assay: Flow cytometric analysis of GFP+ hepatocytes in lfabp:GFP embryos; settings: GFP+ cells, compared to control
Description: S-nitrosoglutathione reductase (GSNOR) is the major enzyme responsible for metabolizing S-nitrosothiols and is therefore a key negative regulator of S-nitrosylation pathways. We reasoned that by inhibiting GSNOR function we could stimulate S-nitrosothiol signaling and modulate liver formation.

[7] = system: zebrafish embryos; assay: Hepatic bud size in zebrafish embryos (hhex, foxA3, sid4 expression); assay type: in vivo
Description: To further characterize the role of NO signaling on liver formation, we studied the temporal requirements for NO signaling. Embryos were exposed to Deta (10 μM), L-Arg (10 μM) or L-NAME (10 μM) from 24-48 or 48-72 hpf at which point liver size was assessed. […] Exposure of embryos to L-Arg (10 μM) caused a subtle yet significant increase in the hepatic bud size at 36 hpf (region of hhex expression) in 26% of embryos, whereas L-NAME diminished hepatic bud size in 33% of embryos.
The expression pattern of an alternate hepatic progenitor marker prox1 corroborated that chemical modulators of NO signaling alter the size of the developing hepatic bud. […] These findings were verified by qPCR for hhex and foxA3.

[8] = system: zebrafish embryos; assay: Hepatic progenitor proliferation in zebrafish embryos (BrdU incorporation, pH3 staining); assay type: in vivo; settings: for BrdU incorporation (BrdU positive cells): developing hepatic bud; for staining for the mitotic marker pH3: treated embryos
[9] = system: WT mice; assay: APAP-induced liver injury in WT mice treated with GSNORi and/or NAC; assay type: in vivo; settings: APAP 300 mg/kg, treatment 2 hrs later, GSNORi 5 mg/kg, NAC 300 mg/kg
Description: To investigate this possibility, WT mice were injected with a sub-lethal dose of APAP (300 mg/kg) followed 2 hrs later by treatment with GSNORi (5 mg/kg) and/or NAC (300 mg/kg). Mice were sacrificed at 6 or 24 hr.

[10] = system: zebrafish embryos; assay: Effect on organs other than the liver in zebrafish embryos (in situ hybridization); assay type: in vivo; settings: 10 μM, 18 hpf until 72 hpf
Description: These findings were corroborated by qPCR for lfabp.
In order to examine the effect that NO signaling had on other endodermal organs including the pancreas and gut, embryos were exposed to Deta (10 μM) or L-NAME (10 μM) from 18 hpf until 72 hpf. Endodermal derived tissue, the exocrine pancreas and gut were stained by in situ hybridization for foxa3, trypsin and ifabp, respectively.

[11] = system: lfabp:GFP embryos; assay: APAP-induced liver injury in zebrafish larvae, sub-lethal dose (liver size, BrdU); assay type: in vivo; settings: for liver size / hepatoprotection: co-exposure model: APAP 5 mM concurrently with treatment 48-96 hpf, Deta 5 μM; for liver size: APAP 5 mM 48-60 hpf, treatment in recovery phase 60-96 hpf, L-NAME 10 μM, NAC 10 μM, GSNORi 1 μM; for liver size and survival after APAP exposure: summary, embryos and adults, co-exposure
Description: In order to examine the possible hepatoprotective effect of GSNORi in the context of acetaminophen (APAP) induced liver injury. Transgenic lfabp:GFP embryos were exposed to a sub-lethal dose of APAP (5 mM) from 48 to 60 hpf followed by treatment during the recovery phase (60-96 hpf) with L-NAME, GSNORi and/or NAC. […] In order to further investigate the proliferative effect of treatments following APAP induced liver injury, we examined BrdU incorporation during the recovery phase.

[12] = system: Zebrafish; assay: Liver regeneration after 1/3 partial hepatectomy in zebrafish; assay type: in vivo; settings: 10 μM
Description: In order to determine whether the hepatoprotective and pro-regenerative effect of GSNOR inhibition was limited to APAP-induced liver injury, we determined the impact of exposure to GSNORi after ⅓ partial hepatectomy.

[13] = system: NO production; assay: NO production in vivo with fluorescent probe Cu(2)(FL2E); design: species or system zebrafish; settings: cell-trappable fluorescent probe Cu(2)(FL2E)
[14] = APAP 10 mM 48-96 hpf, co-exposure
[15] = APAP 10 mM for 18 hr followed by delayed treatment, GSNORi 1 μM, NAC 10 μM

N[C@@H](CCC(=O)N[C@@H](CSN=O)C(=O)NCC(=O)O)C(=O)O [GSNO, S-nitrosoglutathione]
embryos with enhanced liver size ([1]; GSNO 5 μM): 40%
survival compared to APAP alone ([2]; APAP 10 mM): increased survival
embryos with increased liver size ([3]; cloche mutants, GSNO 5 μM): 46%
liver size in cloche embryos [3]: able to modulate liver size
overall survival compared to APAP alone [4]: enhanced overall survival

N=C(N)NCCC[C@H](N)C(=O)O [L-Arg, L-Arginine]
liver size (in situ hybridization for lfabp and transferrin) [1]: dramatic increase in liver size
embryos with a large liver ([1]; L-Arg 10 μM, 24-72 hpf, liver size scored large, medium or small): approximately 51%
liver size [5]: increase in liver size
hepatocytes per embryo [6]: increase in hepatocytes per embryo
embryos with increase in hepatic bud size (region of hhex expression) ([7]; L-Arg 10 μM, 36 hpf): 26%
embryos with increased hepatic bud size (foxA3 expression) ([7]; L-Arg, 48 hpf): 51%
BrdU incorporation (BrdU positive cells) [8]: increase in BrdU positive cells
staining for the mitotic marker pH3 [8]: increased hepatic proliferation
embryos with increased liver size ([3]; cloche mutants, L-Arg 10 μM): 37%

N=C(N)NCCC[C@@H](N)C(=O)O [D-Arg, D-Arginine]
liver size [1]: no effect on liver size

CC(=O)N[C@@H](CS)C(=O)O [NAC, N-acetylcysteine]
circulating ALT, % of the level of APAP alone [9]: 43%
histological evaluation of centrilobular necrosis ([9]; 6 and 24 hr): effective in preventing liver necrosis
survival [2, 14]: 32%
survival ([2]; APAP 10 mM, treatment given after a 12 hr delay): 15%
survival by 72 hpe [4, 15]: 80%
hepatic glutathione (GSH) [4]: modulated
liver histology [4]: alleviated
cell proliferation (PCNA immunohistochemistry) ([4]; following APAP injury): modulated liver regeneration

NCCN(CCN)/[N+]([O-])=N/O [Deta, Diethylenetriamine-NONOate]
liver size [1]: increase liver size
size of other endodermal organs (foxa3, trypsin, ifabp) [10]: did not observably affect the size of other endodermal organs
liver size [5]: increase in liver size
region of hhex and foxA3 expression in the developing hepatic bud ([7]; 10 μM): increasing the region of hhex and foxA3 expression
liver size / hepatoprotection [11]: protected the liver
survival compared to APAP alone ([2]; APAP 10 mM): increased survival
overall survival compared to APAP alone [4]: enhanced overall survival

NG-amino-L-Arginine [L-NMMA]
liver size [1]: decrease liver size in a dose-dependent manner

COC(=O)[C@@H](N)CCCNC(=N)N[N+](=O)[O-] [L-NAME, L-N^G-Nitroarginine methyl ester]
regenerative activity [12]: complete cessation of regenerative activity
liver size (in situ hybridization for lfabp and transferrin) [1]: decrease in liver size
embryos with diminished liver size ([1]; L-NAME 10 μM, 24-72 hpf): 62%
size of other endodermal organs (foxa3, trypsin, ifabp) [10]: did not observably affect the size of other endodermal organs
liver size [5]: smaller livers; also recorded: small liver
hepatocytes per embryo [6]: decrease
embryos with diminished hepatic bud size (hhex) ([7]; L-NAME, 36 hpf): 33%
embryos with restricted hepatic bud size (foxA3 expression) ([7]; L-NAME, 48 hpf): 60%
NO in the developing endoderm [13]: inhibited
liver size [11]: exacerbated
liver size / hepatoprotection [11]: exacerbated injury
liver size and survival after APAP exposure [11]: further decrease in liver size and more extensive loss in survival
BrdU incorporation (BrdU positive cells) [8]: reduced the number of BrdU positive cells
staining for the mitotic marker pH3 [8]: inhibited cell cycle progression
embryos with a small liver ([3]; cloche mutants, L-NAME 10 μM): 40%
liver size in cloche embryos [3]: able to modulate liver size
overall survival compared to APAP alone [4]: exacerbated the loss in survival

CC(=O)NC(C(=O)O)C(C)(C)SN=O (racemic) [SNAP, S-Nitroso-N-Acetyl-D,L-Penicillamine]
liver size [1]: increase liver size

CC(=O)Nc1ccc(O)cc1 [APAP, N-acetyl-p-aminophenol]
liver size [11]: dramatic decrease in liver size
liver size and survival after APAP exposure [11]: decrease in liver size and death
survival [2, 14]: 4%
circulating ALT ([4]; 24 hpe, APAP 10 mM ± GSNORi 1 μM): 196 U/L
survival by 72 hpe [4, 15]: 57%
survival by 72 hpe ([4]; APAP 10 mM ± GSNORi 1 μM for 24 hr, 2-day recovery in fresh water): 39%
hepatic glutathione (GSH) [4]: dramatic reduction in hepatic glutathione (GSH)
liver histology [4]: hepatocyte necrosis and hemorrhaging
GFP fluorescence (fluorescence microscopy) ([4]; adult casper lfabp:GFP fish, APAP 10 mM ± GSNORi 1 μM for 24 hr, examined 72 hpe): reduction in GFP fluorescence
